Literature values as cited in US7338780B2, “Method for producing tripeptides and/or peptides longer than tripeptides” (Ajinomoto Co., Inc., priority 2002, dated 2008).
Residues, ends and D or L forms follow the SMILES beside them.

C[C@H](N)C(=O)N[C@@H](CCC(N)=O)C(=O)O [L-alanyl-L-glutamine] (H-Ala-Gln-OH)
water-solubility compared with L-glutamine: higher
